Patent US20170190671A1, “BIS(ARYL)CATECHOL DERIVATIVES AS HERBICIDES” (E I DU PONT DE NEMOURS AND COMPANY, priority 2014, published 2017)

Legend:
Assay type in all cases: in vivo
[1] = system: barnyardgrass (Echinochloa crus-galli); experiment: Test B flooded paddy; details: Echinochloa crus-galli, 336 h; 250 g ai/ha, Flood, 13 to 15 days, scale 0 (no effect) to 100 (complete control); read-out: Plant response rating, Barnyardgrass
Outline: (§1)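 Visual injury ratings against untreated controls, taken 13 to 15 days after compound was added to paddy water standing 3 cm above the soil.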

[2] = system: ducksalad (Heteranthera limosa); experiment: Test B flooded paddy; details: Heteranthera limosa, 336 h; 250 g ai/ha, Flood, 13 to 15 days, scale 0 (no effect) to 100 (complete control); read-out: Plant response rating, Ducksalad
Outline: as §1

rice (Oryza sativa) = experiment: Test B flooded paddy; details: Oryza sativa, 336 h; 250 g ai/ha, Flood, 13 to 15 days, scale 0 (no effect) to 100 (complete control); read-out: Plant response rating, Rice
Outline: as §1

[3] = system: sedge, umbrella (small-flower umbrella sedge, Cyperus difformis); experiment: Test B flooded paddy; details: Cyperus difformis, 336 h; 250 g ai/ha, Flood, 13 to 15 days, scale 0 (no effect) to 100 (complete control); read-out: Plant response rating, Sedge, Umbrella
Outline: as §1

[4] = system: Italian ryegrass (Lolium multiflorum); experiment: Test A preemergence; details: Lolium multiflorum, pre-emergence, 240 h, 0 to 100 scale (0 no effect, 100 complete control), read-out: Ryegrass, Italian plant response rating
Outline: (§2)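 Visual 0–100 rating (100 = complete control) taken about 10 d post-treatment relative to untreated checks. Preemergence: directed soil spray on sown loam/sand pots. Postemergence: seedlings 2–10 cm, 1–2 leaf. Non-phytotoxic solvent formulation with surfactant.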

[5] = system: barnyardgrass (Echinochloa crus-galli); experiment: Test A preemergence; details: Echinochloa crus-galli, pre-emergence, 240 h, 0 to 100 scale (0 no effect, 100 complete control), read-out: Barnyardgrass plant response rating
Outline: as §2

[6] = system: giant foxtail (Setaria faberii); experiment: Test A preemergence; details: Setaria faberi, pre-emergence, 240 h, 0 to 100 scale (0 no effect, 100 complete control), read-out: Foxtail, Giant plant response rating
Outline: as §2

kochia (Kochia scoparia) [7] = experiment: Test A preemergence; details: Bassia scoparia, pre-emergence, 240 h, 0 to 100 scale (0 no effect, 100 complete control), read-out: Kochia plant response rating
Outline: as §2

[8] = system: pigweed (Amaranthus retroflexus); experiment: Test A preemergence; details: Amaranthus retroflexus, pre-emergence, 240 h, 0 to 100 scale (0 no effect, 100 complete control), read-out: Pigweed plant response rating
Outline: as §2

[9] = system: ragweed (common ragweed, Ambrosia elatior); experiment: Test A preemergence; details: Ambrosia artemisiifolia, pre-emergence, 240 h, 0 to 100 scale (0 no effect, 100 complete control), read-out: Ragweed plant response rating
Outline: as §2

[10] = system: Italian ryegrass (Lolium multiflorum); experiment: Test A postemergence; details: Lolium multiflorum, post-emergence, 240 h, 0 to 100 scale, read-out: Plant response rating, Ryegrass, Italian
Outline: as §2

[11] = system: barnyardgrass (Echinochloa crus-galli); experiment: Test A postemergence; details: Echinochloa crus-galli, post-emergence, 240 h, 0 to 100 scale, read-out: Plant response rating, Barnyardgrass
Outline: as §2

[12] = system: blackgrass (Alopecurus myosuroides); experiment: Test A postemergence; details: Alopecurus myosuroides, post-emergence, 240 h, 0 to 100 scale, read-out: Plant response rating, Blackgrass
Outline: as §2

corn (Zea mays) = experiment: Test A postemergence; details: Zea mays, post-emergence, 240 h, 0 to 100 scale
Outline: as §2

[13] = system: galium (catchweed bedstraw, Galium aparine); experiment: Test A postemergence; details: Galium, post-emergence, 240 h, 0 to 100 scale, read-out: Plant response rating, Galium
Outline: as §2

[14] = system: giant foxtail (Setaria faberii); experiment: Test A postemergence; details: Setaria faberi, post-emergence, 240 h, 0 to 100 scale, read-out: Plant response rating, Foxtail, Giant
Outline: as §2

kochia (Kochia scoparia) [15] = experiment: Test A postemergence; details: Bassia scoparia, post-emergence, 240 h, 0 to 100 scale, read-out: Plant response rating, Kochia
Outline: as §2

[16] = system: pigweed (Amaranthus retroflexus); experiment: Test A postemergence; details: Amaranthus retroflexus, post-emergence, 240 h, 0 to 100 scale, read-out: Plant response rating, Pigweed
Outline: as §2

[17] = system: ragweed (common ragweed, Ambrosia elatior); experiment: Test A postemergence; details: Ambrosia artemisiifolia, post-emergence, 240 h, 0 to 100 scale, read-out: Plant response rating, Ragweed
Outline: as §2

[18] = system: wheat (Triticum aestivum); experiment: Test A postemergence; details: Triticum aestivum, post-emergence, 240 h, 0 to 100 scale, read-out: Plant response rating, Wheat
Outline: as §2

With `FCc1cccc(Oc2ncc(Cl)cn2)c1Oc1ncc(Cl)cn1` [Compound 44] the pest or weed control at 250 g/ha [1] was 40%, the pest or weed control at 250 g/ha [2] was 95% and the plant injury at 250 g/ha (rice (Oryza sativa)) was 40%. For the same molecule, the pest or weed control at 250 g/ha [3] was 75%, the pest or weed control at 31 g/ha ([4]; 31 g ai/ha) was 0% and the pest or weed control at 125 g/ha ([4]; 125 g ai/ha) was 20%. It also gave a pest or weed control at 31 g/ha ([5]; 31 g ai/ha) of 20%, a pest or weed control at 125 g/ha ([5]; 125 g ai/ha) of 100% and a pest or weed control at 31 g/ha ([6]; 31 g ai/ha) of 90%. The pest or weed control at 125 g/ha ([6]; 125 g ai/ha) was 100%, the pest or weed control at 31 g/ha (kochia (Kochia scoparia) [7]; 31 g ai/ha) was 60% and the pest or weed control at 125 g/ha (kochia (Kochia scoparia) [7]; 125 g ai/ha) was 100%. For the same molecule, the pest or weed control at 31 g/ha ([8]; 31 g ai/ha) was 100%, the pest or weed control at 125 g/ha ([8]; 125 g ai/ha) was 100% and the pest or weed control at 31 g/ha ([9]; 31 g ai/ha) was 0%. For the same molecule, the pest or weed control at 125 g/ha ([9]; 125 g ai/ha) was 40%, the pest or weed control at 31 g/ha ([10]; 31 g ai/ha) was 20% and the pest or weed control at 125 g/ha ([10]; 125 g ai/ha) was 30%. It also gave a pest or weed control at 31 g/ha ([11]; 31 g ai/ha) of 20%, a pest or weed control at 125 g/ha ([11]; 125 g ai/ha) of 90% and a pest or weed control at 31 g/ha ([12]; 31 g ai/ha) of 40%. The pest or weed control at 125 g/ha ([12]; 125 g ai/ha) was 80%, the Corn plant response rating (crop injury, 0 = no effect, 100 = complete kill) at 31 g/ha (corn (Zea mays); 31 g ai/ha) was 20% and the Corn plant response rating (crop injury, 0 = no effect, 100 = complete kill) at 125 g/ha (corn (Zea mays); 125 g ai/ha) was 70%. It also gave a pest or weed control at 31 g/ha ([13]; 31 g ai/ha) of 70%, a pest or weed control at 125 g/ha ([13]; 125 g ai/ha) of 80% and a pest or weed control at 31 g/ha ([14]; 31 g ai/ha) of 10%. For the same molecule, the pest or weed control at 125 g/ha ([14]; 125 g ai/ha) was 90%, the pest or weed control at 31 g/ha (kochia (Kochia scoparia) [15]; 31 g ai/ha) was 50% and the pest or weed control at 125 g/ha (kochia (Kochia scoparia) [15]; 125 g ai/ha) was 80%. For the same molecule, the pest or weed control at 31 g/ha ([16]; 31 g ai/ha) was 30%, the pest or weed control at 125 g/ha ([16]; 125 g ai/ha) was 70% and the pest or weed control at 31 g/ha ([17]; 31 g ai/ha) was 20%. For the same molecule, the pest or weed control at 125 g/ha ([17]; 125 g ai/ha) was 70%, the plant injury at 31 g/ha ([18]; 31 g ai/ha) was 20% and the plant injury at 125 g/ha ([18]; 125 g ai/ha) was 80%.
